Measurements from patent US20220142958A1, “MEDICINAL COMPOSITION HAVING EXCELLENT STABILITY” (EA Pharma Co., Ltd., priority 2019, published 2022).

Experiments:
Format in all cases: in vivo, rat
[1] = Estimated plasma concentration in bilaterally nephrectomized rats; details: 48 hours after single intravenous administration at 3 mg/kg
[2] = system: bilaterally nephrectomized rats; assay: Survival of bilaterally nephrectomized rats after single doses; details: for number of rats surviving (of five per group): 48 hours after the administration
Description: (§1) After quarantine and acclimatization periods of 6 days, fifty-one rats (Crl: CD (SD), male) aged 7 weeks were fed a 100% sucrose diet ad libitum from four days before the surgery. On the day of the surgery, skin incisions were made on the back at the sites of the right and left kidneys under isoflurane anesthesia and the renal capsules were removed to ligate the renal arteries and veins and the ureters using threads before removing the right and left kidneys. A penicillin solution was given upon suturing, and 5 mL of physiological saline was intraperitoneally administered before returning the rats into the breeding cages.
(§2) On a day after the bilaterally nephrectomy, the given doses were calculated based on the weight of the selected animals on that day. Group 1 was given a medium (physiological saline), Groups 2, 3 and 4 were given the Compound A1 solution (0.3, 3 and 30 mg/mL, respectively), and Groups 5, 6, 7 and 8 (5 rats per group) were given the comparative compound (0.3, 1, 3 and 10 mg/mL, respectively), each given a single dose of 1 ml/kg from the tail vein. Prior to the administration (0 hours), and 24 and 48 hours after the administration, approximately 300 μL of blood was collected without anesthesia from the tail vein using capillary tubes for obtaining the serum. The blood for obtaining the serum was left to stand at room temperature, and centrifuged in a high speed refrigerated microcentrifuge (10,000 rpm, 5 min, 4° C.) within a period of 30 minutes to 2 hours after the blood collection to collect the serum.

serum iPTH concentration = assay: Serum iPTH concentration in bilaterally nephrectomized rats after single intravenous administration
Description: as §1
(§3) On the day of administering the test substance, for example, a day after the bilaterally nephrectomy, approximately 100 μL of blood was collected from the tail vein without anesthesia using a capillary tube, which was centrifuged in a high speed refrigerated microcentrifuge (10,000 rpm, 5 min, 4° C.) to separate the serum. Thereafter, the serum Ca concentration was measured with a dri-chemanalyzer (model number: FUJI DRI-CHEM 7000, manufacturer: FUJI FILM Medical Co., Ltd.) to select individuals with a serum Ca concentration of 8.0 mg/dL or more and less than 14.0 mg/dL.
as §2
(§4) Thereafter, the serum Ca was analyzed with COBAS analyzer (Model number: COBAS INTEGRA 400 plus, manufacturer: Roche Diagnostics K.K.), and the remaining serum was stored in an ultra-low freezer (temperature set to −80±15° C.) until the day of iPTH measurement. On the day of iPTH measurement, the serum was melted at room temperature for measurement.
(§5) A 30 mg/ml Compound A1 solution ([…] of Compound A1 dissolved in 10 ml of physiological saline) was diluted with physiological saline to prepare 0.3 mg/ml and […] Compound A1 solutions.
(§6) 149 mg of etelcalcetide (Ac-c(C) arrrar-NH2) TFA salt (WO 2011/014707 A) was prepared to have pH of 6 to 8 with 7 ml of physiological saline and a 0.5N aqueous NaOH solution, and physiological saline was further added thereto to make 10 ml. The prepared 10 mg/ml comparative compound solution was diluted with physiological saline to obtain 0.3 mg/ml and 1 mg/ml comparative compound solutions.

serum Ca concentration = assay: Serum Ca concentration in bilaterally nephrectomized rats after single intravenous administration
Description: as §1, §3, §2, §4, §5, §6

[3] = 0.3 mg/kg single i.v., 24 hours after the administration
[4] = 0.3 mg/kg single i.v., 48 hours after the administration
[5] = 1 mg/kg single i.v., 24 hours after the administration
[6] = 1 mg/kg single i.v., 48 hours after the administration
[7] = 3 mg/kg single i.v., 24 hours after the administration
[8] = 3 mg/kg single i.v., 48 hours after the administration
[9] = 10 mg/kg single i.v., 24 hours after the administration
[10] = 10 mg/kg single i.v., 48 hours after the administration (n=1)
[11] = logistic curve fitting, 48 hours after the administration vs given dose

SMILES: CC(=O)N[C@H](CSSC[C@H](N)C(=O)O)C(=O)N[C@H](C)C(=O)N[C@H](CCCNC(=N)N)C(=O)N[C@H](CCCNC(=N)N)C(=O)N[C@H](CCCNC(=N)N)C(=O)N[C@H](C)C(=O)N[C@H](CCCNC(=N)N)C(N)=O [comparative compound, etelcalcetide]
- plasma concentration (estimated) [1]: 130 ng/mL
- number of rats surviving (of five per group) ([2]; 3 mg/kg group): four
- number of rats surviving (of five per group) ([2]; 10 mg/kg group): one
- number of dead rats ([2]; relation to dose): increased in a dose-dependent manner
- mean serum iPTH concentration (serum iPTH concentration; [3]): 122 pg/mL
- mean serum iPTH concentration (serum iPTH concentration; [4]): 510 pg/mL
- mean serum iPTH concentration (serum iPTH concentration; [5]): 52 pg/mL
- mean serum iPTH concentration (serum iPTH concentration; [6]): 280 pg/mL
- mean serum iPTH concentration (serum iPTH concentration; [7]): 22 pg/mL
- mean serum iPTH concentration (serum iPTH concentration; [8]): 41 pg/mL
- mean serum iPTH concentration (serum iPTH concentration; [9]): 104 pg/mL
- mean serum iPTH concentration (serum iPTH concentration; [10]): 230 pg/mL
- lower limit value of the serum iPTH concentration (simulated) (serum iPTH concentration; [11]): 48.18 pg/mL
- 50% effective concentration, EC50 value, for decreasing the serum iPTH concentration (serum iPTH concentration; plasma concentration, rats): 0.04 µg/mL
- decrease of serum iPTH and Ca concentrations (serum iPTH concentration; renal failure rat models, during 48 hours after the administration, relation to dose): in a dose-dependent manner
- mean serum Ca concentration (serum Ca concentration; [3]): 8.33 mg/dL
- mean serum Ca concentration (serum Ca concentration; [4]): 10.44 mg/dL
- mean serum Ca concentration (serum Ca concentration; [5]): 6.42 mg/dL
- mean serum Ca concentration (serum Ca concentration; [6]): 7.33 mg/dL
- mean serum Ca concentration (serum Ca concentration; [7]): 6.82 mg/dL
- mean serum Ca concentration (serum Ca concentration; [8]): 5.85 mg/dL
- mean serum Ca concentration (serum Ca concentration; [9]): 6.95 mg/dL
- mean serum Ca concentration (serum Ca concentration; [10]): 6.65 mg/dL
- lower limit value of the serum Ca concentration (simulated) (serum Ca concentration; [11]): 5.880 mg/dL
